Format in all cases: in vivo
Assay [1] has as its system Nilaparvata lugens. As to the kind of experiment: Nilaparvata lugens spray test. Particulars: 336 h, after 14 days, rice plants. As for the experimental part:
Nilaparvata lugens—Spray Test
To produce a suitable preparation of active compound, 1 part by weight of active compound is mixed with the stated amount of solvents and is diluted with water, containing an emulsifier concentration of 1000 ppm, to the desired concentration. Further test concentrations are prepared by dilution with emulsifier containing water.
Rice plants (Oryza sativa) are sprayed with a preparation of the active ingredient of the desired concentration and the plants are infested with the brown planthopper (Nilaparvata lugens).
After 14 days mortality in % is determined. 100% means all planthoppers have been killed and 0% means none of the planthoppers have been killed.

For assay [2], the system named is Spodoptera frugiperda. As to the kind of experiment: Spodoptera frugiperda spray test. The following applies: 168 h, after 7 days, larvae on maize leaf sections. The essentials: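 Leaf-spray assay on maize: sections treated with active ingredient at the desired concentration in emulsifier-containing water (1000 ppm) and, once dry, exposed to armyworm caterpillars. Kill rate is expressed in percent after seven days.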

In assay [3] the test system is Nezara viridula. The assay can be described thus: Nezara viridula spray test. The following applies: 96 h, after 4 days, larvae on barley plants. The essentials:
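Mortality (%) was assessed at day 4, from 0% (no bugs dead) to 100% (all dead). The spray solution was compound diluted to test concentration in water with 1000 ppm emulsifier and applied to barley carrying southern green stink bug larvae.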

In assay [4] the test system is Ctenocephalides felis. The assay can be described thus: Ctenocephalides felis oral test. The following applies: 48 h, 100 ppm in cattle blood, after 2 days, adult unfed cat fleas. In a few lines:
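Compound dissolved in DMSO and diluted in cattle blood to test concentration, offered to ~20 unfed adult fleas via a parafilm-sealed blood chamber held at 37° C (fleas at room temperature). Kill recorded at 2 days as % mortality.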

The test system of assay [5] is Boophilus microplus. The assay can be described thus: Boophilus microplus injection test. The following applies: Rhipicephalus microplus, 168 h; 20 μg/animal injected into the abdomen; adult engorged female ticks; egg deposition after 7 days; read-out: efficacy (infertile eggs). The essentials:
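Efficacy, from 0% (all eggs fertile) to 100% (all infertile), was scored on eggs laid by five engorged adult females. Each female was injected intra-abdominally with 1 μl of compound solution in DMSO. Fertile egg laying was checked at 7 days, with uncertain eggs kept until hatching at about 42 days.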

The subject of assay [6] is Diabrotica balteata. As to the kind of experiment: Diabrotica balteata spray test. The following applies: Diabrotica balteata, in Triticum aestivum, 168 h, after 7 days, larvae on wheat seeds, read-out: efficacy (seedlings grown up); for pest or weed control at 80 µg/disc, 250 g/ha: 80 μg/well (=250 g/ha); for pest or weed control at 160 µg/disc, 500 g/ha: 160 μg/well (=500 g/ha). The essentials: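 Scoring at 7 days compares seedling growth with untreated, uninfested controls (100% = equal growth, 0% = none grown). Wheat seedlings germinated 1 day on agar, 5 per well, received a spray of test solution made in 1000 ppm emulsifier water. Each unit then received 10–20 beetle larvae.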

The subject of assay [7] is Ctenocephalides felis. As to the kind of experiment: Ctenocephalides felis in-vitro contact test, adult cat flea. Particulars: 5 μg/cm^2 (=500 g/ha), after 48 hours, adult cat fleas, read-out: efficacy (fleas dead or moribund). On the procedure:
Ctenocephalides Felis—In-Vitro Contact Tests Adult Cat Flea 9 mg compound is solved in 1 ml acetone and diluted with acetone to the desired concentration. 250 μl of the test solution is filled in 25 ml glass test tubes and homogeneously distributed on the inner walls by rotation and tilting on a shaking device (2 h at 30 rpm). With a compound concentration of 900 ppm, an inner surface of 44.7 cm^2 and a homogeneous distribution, a dose of 5 μg/cm^2 is achieved. After the solvent has evaporated, each test tube is filled with 5-10 adult cat fleas (Ctenocephalides felis), closed with a perforated lid and incubated in a lying position at room temperature and relative humidity. After 48 hours efficacy is determined. The fleas are patted on the ground of the tubes and are incubated on a heating plate at 45-50° C. for at most 5 minutes. Immotile or uncoordinated moving fleas, which are not able to escape the heat by climbing upwards, are marked as dead or moribund. […] An efficacy of 100% means all fleas are dead or moribund; 0% means no fleas are dead or moribund.

For assay [8], the system named is Myzus persicae. As to the kind of experiment: Myzus persicae spray test. Particulars: foliar, 120 h, after 5 days, Chinese cabbage leaf disks. In a few lines: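 Percent kill was recorded 5 days after spraying. Test solutions, prepared with solvent and diluted in 1000 ppm emulsifier water, were applied to Brassica pekinensis leaf disks carrying mixed-instar green peach aphids.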

The test system of assay [9] is Myzus persicae. As to the kind of experiment: Myzus persicae oral test. The following applies: 120 h, 4 ppm, after 5 days. The essentials: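 Aphid mortality (%) was recorded 5 days after a mixed Myzus persicae population began sucking, through parafilm, on compound solutions (acetone stock diluted with water) combined with sugar-supplemented IPL41 medium.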
Assay [10] relates to Culex quinquefasciatus strain P00. As to the kind of experiment: Culex quinquefasciatus test (CULXFA surface treatment & contact assay). Particulars: 24 hours after contact, read-out: efficacy (mortality). On the procedure: Culex Quinquefasciatus Test (CULXFA Surface Treatment & Contact Assay)
(§1) Solvent: Aceton+2000 ppm rapeseed oil methyl ester (RME)
In order to produce a sufficient, active ingredient containing solution it is necessary to solve the test compound in the solvent-mix (acetone at 2 mg/ml/RME 2000 ppm). This solution is pipetted onto a glazed tile and after evaporation of the acetone, adult mosquitoes of the species Culex quinquefasciatus strain P00 are placed onto the dried surface. The exposure time is 30 minutes.
(§2) Mortality in percent (%) is determined 24 hours after contact of the insects to the treated surface. 100% mortality means that all tested insects are dead, whereas 0% means that no insect died.

The test system of assay [11] is Musca domestica strain WHO-N. The assay can be described thus: Musca domestica test (MUSCDO surface treatment & contact assay). Particulars: 24 hours after contact, read-out: efficacy (mortality). As for the experimental part:
Musca domestica test (MUSCDO surface treatment & contact assay)
as §1
In order to produce a sufficient, active ingredient containing solution it is necessary to solve the test compound in the solvent-mix (acetone at 2 mg/ml/RME 2000 ppm). This solution is pipetted onto a glazed tile and after evaporation of the acetone, adult flies of the species Musca domestica strain WHO-N are placed onto the dried surface. The exposure time is 30 minutes.
Mortality in percent (%) is determined 24 hours after contact of the insects to the treated surface. 100% morality means that all tested insects are dead, whereas 0% means that no insect died.

Assay [12] relates to Aedes aegypti strain MONHEIM. As to the kind of experiment: Aedes aegypti test (AEDSAE surface treatment & contact assay). The following applies: 24 hours after contact, read-out: efficacy (mortality). In a few lines:
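Compound dissolved in acetone (2 mg/ml) with 2000 ppm rapeseed oil methyl ester, applied to glazed tile and dried; adult strain MONHEIM mosquitoes exposed 30 minutes. Percent mortality scored 24 hours after contact.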

Assay [13] concerns Anopheles funestus strain FUMOZ-R. The assay can be described thus: Anopheles funestus test (ANPHFU surface treatment & contact assay). Particulars: 24 hours after contact, read-out: efficacy (mortality). On the procedure: Anopheles funestus Test (ANPHFU Surface Treatment & Contact Assay)
as §1
In order to produce a sufficient, active ingredient containing solution it is necessary to solve the test compound in the solvent-mix (acetone at 2 mg/ml/RME 2000 ppm). This solution is pipetted onto a glazed tile and after evaporation of the acetone, adult mosquitoes of the species Anopheles funestus strain FUMOZ-R (Hunt et al., Med. Vet. Entomol. 2005 September; 19(3): 271-275) are placed onto the dried surface. The exposure time is 30 minutes.
as §2

The subject of assay [14] is cattle ticks (Boophilus microplus) strane Parhurst, SP-resistant. The assay can be described thus: Boophilus microplus dip test. Particulars: Rhipicephalus microplus, 168 h, engorged adult female cattle ticks, egg deposition after 7 days, read-out: efficacy (infertile eggs). On the procedure: Boophilus microplus—Dip Test
Test animal: cattle ticks (Boophilus microplus) strane Parhurst, SP-resistant
Solvent: dimethyl sulfoxide
To produce a suitable preparation of active compound, 10 mg of active compound are dissolved in 0.5 ml solvent, and the concentrate is diluted with water to the desired concentration.
This compound solution is pipetted into tubes. 8-10 engorged, adult, female cattle ticks (Boophilus microplus) are placed in perforated tubes. These tubes are immersed in the aqueous compound solution until the ticks are completely moistened. After the liquid has drained off, the ticks are transferred to a filter paper in a plastic tray and stored in a climate chamber.
After 7 days egg deposition of fertile eggs is monitored. Eggs where fertility is not visible are stored in a climate chamber till hatching after about 42 days. An efficacy of 100% means all eggs are infertile; 0% means all eggs are fertile.

Where [15] appears, read: surface concentration 4 mg/m^2, exposure 30 minutes.
[16] abbreviates: surface concentration 20 mg/m^2, exposure 30 minutes.

For orientation: mortality means the share of the test organisms that died. In the case of `CC(NC(=S)c1cc(Cl)cc(C(F)(F)F)c1)c1ncnn1-c1ccc(C#N)cn1` (stereo in doubt) [Example I-080, 3-chloro-N-{(1R)-1-[1-(5-cyanopyridin-2-yl)-1H-1,2,4-triazol-5-yl]ethyl}-5-(trifluoromethyl)benzenecarbothioamide], the mortality at 500 g/ha in assay [1] was 100%. Besides, in assay [2], the mortality at 100 g/ha amounted to 100% and the mortality at 500 g/ha amounted to 100%. In assay [3], this compound displayed a mortality at 100 g/ha of 100% and a mortality at 500 g/ha of 100%. The compound also came in with a mortality at 100 ppm in assay [4] of 100%. In addition, the pest or weed control at 0.02 mg in [5] was found to be 100%. In [6], the pest or weed control at 80 µg/disc, 250 g/ha was 100% and the pest or weed control at 160 µg/disc, 500 g/ha was found to be 80%. Also, the pest or weed control at 5 µg/cm2 in [7] was determined as 100%.

Regarding `C[C@H](NC(=O)c1cc(Cl)cc(C(F)(F)F)c1)c1ncnn1-c1ncc(F)cc1F` [Example I-014], the mortality at 500 g/ha in [1] is 100%; in assay [2] it was 100%; in assay [3] it was 100%; in assay [8], 90%. In addition, the values for the mortality at 100 g/ha in assay [2], in assay [3] and in assay [8] were 100%, 100% and 90%, respectively. In assay [4], this compound registered a mortality at 100 ppm of 100%. In addition, in assay [9], the mortality at 4 ppm is 100%. The mortality at 4 mg/m2 in assay [10] (setting [15]) fell in the range of 90 to 100%; in assay [11] (setting [15]), 90 to 100%; in [12] (setting [15]), 90 to 100%; in [13] (setting [15]), 85 to 100%. In addition, the mortality at 20 mg/m2 in [10] (setting [16]), in [11] (setting [16]), in [12] (setting [16]) and in [13] (setting [16]) was 90 to 100% each time. The pest or weed control at 0.02 mg in assay [5] stood at 100%. The pest or weed control at 80 µg/disc, 250 g/ha in [6] was 100%. In addition, the pest or weed control at 160 µg/disc, 500 g/ha in assay [6] came to 100%.

In the case of `C[C@H](NC(=O)c1cc(Cl)cc(C(F)(F)F)c1)c1ncnn1-c1ccc(N(S(C)(=O)=O)S(C)(=O)=O)cn1` [Example I-037], the pest or weed control at 100 ppm in assay [14] was determined as 100%. In addition, the mortality at 500 g/ha is 100% in [1], 100% in assay [3] and 90% in assay [8]. Besides, the mortality at 100 g/ha in assay [2] is 100%; in assay [3] it was 100%; in [8], 90%. Further, the mortality at 100 ppm in assay [4] was found to be 100%. In [5], the pest or weed control at 0.02 mg was determined as 100%. Moreover, the pest or weed control at 80 µg/disc, 250 g/ha in assay [6] was found to be 100%. In [6], the pest or weed control at 160 µg/disc, 500 g/ha was 100%. For the same compound, the pest or weed control at 5 µg/cm2 in assay [7] came out at 100%.

For `C[C@H](NC(=O)c1cc(C(F)(F)F)cc(C(F)(F)F)c1)c1ncnn1-c1ncc(F)cc1F` [Example I-077], the mortality at 500 g/ha was 100% in assay [1], 100% in assay [2], 100% in assay [3] and 90% in [8]. The mortality at 100 g/ha was 100% in assay [2], 100% in assay [3] and 90% in [8]. The compound also registered a mortality at 100 ppm in [4] of 100%. Further, in assay [9], the mortality at 4 ppm was found to be 100%. For the same compound, in assay [5], the pest or weed control at 0.02 mg was 100%. For the same compound, in assay [6], the pest or weed control at 80 µg/disc, 250 g/ha amounted to 100%. Besides, the pest or weed control at 160 µg/disc, 500 g/ha in assay [6] came to 100%. Besides, in assay [7], the pest or weed control at 5 µg/cm2 was 100%.

In assay [1], `C[C@H](NC(=O)c1cc(Cl)cc(C(F)(F)F)c1)c1ncnn1-c1ccc(C(=O)NCC(F)(F)F)cn1` [Example I-078] returned a mortality at 500 g/ha of 100%. In assay [2], this compound came in with a mortality at 100 g/ha of 100% and a mortality at 500 g/ha of 100%. Also, in assay [3], the mortality at 100 g/ha amounted to 90% and the mortality at 500 g/ha was 100%. For the same compound, in assay [4], the mortality at 100 ppm came out at 100%. Also, the mortality at 4 ppm in assay [9] is 100%. Besides, the pest or weed control at 0.02 mg in assay [5] is 100%. Besides, in [6], the pest or weed control at 80 µg/disc, 250 g/ha came to 100% and the pest or weed control at 160 µg/disc, 500 g/ha came out at 80%. The pest or weed control at 5 µg/cm2 in assay [7] is 90%.

These data come from patent US12171229B2, “Heteroaryl-triazole and heteroaryl-tetrazole compounds as pesticides” (BAYER AKTIENGESELLSCHAFT, priority 2018, dated 2024).
